Reference: patent publication US5576311A, “Cyclodextrins as suspending agents for pharmaceutical suspensions” (Pharmos Corporation, priority 1994, dated 1996)
Converted amounts (≈) assume the structure as drawn. Where two headings read alike, the source gives them in different places. Blank lines part the entries; values can stand above or below the molecule they belong to.

Assays:
[1] = Method D: solubilization of LE by cyclodextrins, HPLC before and after centrifugation; type: physicochemical
Experimental: To evaluate solubilization of drugs such as LE by cyclodextrins, LE is continuously mixed with cyclodextrins in various concentrations in water for one week at room temperature. Samples of the resulting suspensions and the soluble fractions of LE are analyzed by high pressure liquid chromatography ("HPLC") before and after centrifugation at 5000 G, respectively (hereinafter referred to as "Method D"). The concentrations of LE are calculated from the area under the curve of the LE peak using known techniques.

[2] = in vivo; cited from earlier work
[3] = HPLC measurement of concentration of LE in cyclodextrin suspensions after storage; type: physicochemical
[4] = in vivo; cited from earlier work; remark: listed apart in the source
[5] = Stability of aqueous suspensions of LE with buffering systems or ionic tonicity agents; type: physicochemical; settings: accepted buffering systems or ionic tonicity agents
glucocorticoid receptors = settings: cited from earlier work
[6] = 25° C.; cited from earlier work

solubility at 168 h ([1]; water with 0.5% hpcd, 0.5% HPCD, water, one week, room temperature, read-out: LE Solubilized): 0.007 mg/mL (≈ 15 µM) | solubility at 168 h ([1]; water with 1.0% bcd, 1.0% BCD, water, one week, room temperature, read-out: LE Solubilized): 0.01 mg/mL (≈ 21.4 µM) | solubility at 168 h ([1]; water with 1.0% hecd, 1.0% HECD, water, one week, room temperature, read-out: LE Solubilized): 0.01 mg/mL (≈ 21.4 µM) | solubility at 168 h ([1]; water with 1.0% hpcd, 1.0% HPCD, water, one week, room temperature, read-out: LE Solubilized): 0.005 mg/mL (≈ 10.7 µM) | solubility at 168 h ([1]; water with cyclodextrin, all cyclodextrins of Table 3, read-out: LE solubilized by cyclodextrins): ≤ 0.01 mg/mL | [LE] measurement (% of label) ([3]; 5 mg/ml label, BCD 1%, 23 C, 4.0 mos, 172800 min): 106.78 % of label | [LE] measurement (% of label) ([3]; 5 mg/ml label, HECD 1%, 23 C, 4.0 mos, 172800 min): 104.26 % of label | [LE] measurement (% of label) ([3]; 5 mg/ml label, HPCD 0.5%, 23 C, 5.0 mos, 216000 min): 101.12 % of label | [LE] measurement (% of label) ([3]; 5 mg/ml label, HPCD 1%, 23 C, 0.5 mos, 21600 min): 94.3 % of label | [LE] measurement (% of label) ([3]; 5 mg/ml label, HPCD 1%, 23 C, 5.0 mos, 216000 min): 115.45 % of label | [LE] measurement (% of label) ([3]; 5 mg/ml label, HPCD 1%, 37 C, 2.0 mos, 86400 min): 104.04 % of label | [LE] measurement (% of label) ([3]; 5 mg/ml label, HPCD 1%, 45 C, 2.0 mos, 86400 min): 96.84 % of label | [LE] measurement (% of label) ([3]; 10 mg/ml label, BCD 1%, 23 C, 4.0 mos, 172800 min): 105.7 % of label | [LE] measurement (% of label) ([3]; 10 mg/ml label, HECD 1%, 23 C, 4.0 mos, 172800 min): 135.88 % of label | [LE] measurement (% of label) ([3]; 10 mg/ml label, HPCD 0.5%, 23 C, 5.0 mos, 216000 min): 109.09 % of label | [LE] measurement (% of label) ([3]; 10 mg/ml label, HPCD 1%, 23 C, 0.5 mos, 21600 min): 88.18 % of label | [LE] measurement (% of label) ([3]; 10 mg/ml label, HPCD 1%, 23 C, 5.0 mos, 216000 min): 110.23 % of label | concentration of LE in the suspension (in words) ([3]; Table 4 storage): not significantly altered | obtaining stable aqueous suspensions [5]: cannot be obtained
Compound: CCOC(=O)O[C@]1(C(=O)OCCl)CC[C@H]2[C@@H]3CCC4=CC(=O)C=C[C@]4(C)[C@H]3[C@@H](O)C[C@@]21C [LE, loteprednol etabonate]
efficacy relative to prednisolone acetate [2]: efficacy similar to its parent compound, namely, prednisolone acetate | ocular anti-inflammatory activity [2]: has ocular anti-inflammatory activity | risk of steroid induced cataracts and elevation of intra-ocular pressure [4]: reducing the risk of steroid induced cataracts and elevation of intra-ocular pressure

Compound: CCOC(=O)OC1(C(=O)O)CCC2C3CCC4=CC(=O)C=CC4(C)C3C(O)CC21C (stereo not drawn) [PJ-91]
binding to glucocorticoid receptors (glucocorticoid receptors): does not bind to glucocorticoid receptors

Compound: OC[C@H]1O[C@@H]2O[C@H]3[C@H](O)[C@@H](O)[C@@H](O[C@H]4[C@H](O)[C@@H](O)[C@@H](O[C@H]5[C@H](O)[C@@H](O)[C@@H](O[C@H]6[C@H](O)[C@@H](O)[C@@H](O[C@H]7[C@H](O)[C@@H](O)[C@@H](O[C@H]8[C@H](O)[C@@H](O)[C@@H](O[C@H]1[C@H](O)[C@H]2O)O[C@@H]8CO)O[C@@H]7CO)O[C@@H]6CO)O[C@@H]5CO)O[C@@H]4CO)O[C@@H]3CO [β-Cyclodextrin, β-cyclodextrin]
aqueous solubility [6]: about 1.8 % w/v
